Measured values from patent US12139520B2 (priority 2020, dated 2024).
Numbered stars: 1 amine (or outer) side, 2 acyl side, 3 side chain; on linkers, the order of the positions; unused ones are H or OH. Bridge positions count the residues as written; N and C are the ends. Square brackets hold non-standard residues; d marks the D form. Peptide text beside a SMILES is read from it. * marks the point of attachment. C20 diacid = O=C(O)CCCCCCCCCCCCCCCCCCC(=O)*; γGlu = O=C(O)[C@H](CCC(=O)[*:2])N[*:1]; Hyp = O=C(O)[C@@H]1C[C@@H](O)CN1; NMeI = CC[C@H](C)[C@H](NC)C(=O)O; Sar = CNCC(=O)O

Molecular target: T1, hAMY3 receptor (Homo sapiens, UniProt O60896+P30988)
T1 sequence (P30988 25-474): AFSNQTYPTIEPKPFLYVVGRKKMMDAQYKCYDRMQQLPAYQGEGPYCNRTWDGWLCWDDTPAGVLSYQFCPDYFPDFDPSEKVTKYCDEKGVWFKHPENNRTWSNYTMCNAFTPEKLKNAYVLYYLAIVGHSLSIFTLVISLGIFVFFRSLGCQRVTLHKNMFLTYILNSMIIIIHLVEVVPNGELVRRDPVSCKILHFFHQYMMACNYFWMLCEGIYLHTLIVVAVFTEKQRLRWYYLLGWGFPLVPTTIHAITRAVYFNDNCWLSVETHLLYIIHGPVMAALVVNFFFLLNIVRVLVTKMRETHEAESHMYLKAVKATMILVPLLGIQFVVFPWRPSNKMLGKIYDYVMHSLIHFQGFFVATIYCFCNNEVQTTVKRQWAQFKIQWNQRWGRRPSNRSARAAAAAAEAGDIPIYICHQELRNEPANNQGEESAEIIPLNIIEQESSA
T1 sequence (O60896 24-148 partner): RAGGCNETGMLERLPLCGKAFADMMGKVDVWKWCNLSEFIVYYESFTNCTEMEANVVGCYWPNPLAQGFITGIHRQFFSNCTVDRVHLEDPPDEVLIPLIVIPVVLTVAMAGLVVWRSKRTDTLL
Assay: cAMP assay for in vitro receptor activation, hAMY3-R
Type: cell-based
Settings: cAMP assay, hAMY3 receptor; read-out: hAMY3R EC50
Summary of the method: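 Monoclonal cell line stably overexpressing hAMY3 receptor, plated in DPBS with 0.05% casein and 0.5 mM IBMX, was stimulated with graded compound doses for 30 min at room temperature. cAMP accumulation was read by time-resolved FRET one hour after adding detection reagents.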

| EC50 [nM] | SMILES |
| --- | --- |
| 0.039 | CC(C)C[C@H](NC(=O)[C@H](CCCNC(=N)N)NC(=O)[C@H](CCC(N)=O)NC(=O)[C@@H](NC(=O)[C@@H](NC(=O)[C@@H]1CSSC[C@H](NC(=O)CNC(=O)CC[C@H](NC(=O)CCCCCCCCCCCCCCCCCCC(=O)O)C(=O)O)C(=O)N[C@@H](CCCNC(=N)N)C(=O)N[C@@H](Cc2ccccc2)C(=O)NCC(=O)N[C@@H]([C@@H](C)O)C(=O)N1)[C@@H](C)O)C(C)C)C(=O)N[C@@H](C)C(=O)N[C@@H](CC(N)=O)C(=O)N[C@@H](Cc1ccccc1)C(=O)N[C@@H](CC(C)C)C(=O)N[C@@H](Cc1ccc(O)cc1)C(=O)N[C@@H](CCC(N)=O)C(=O)N[C@@H](Cc1ccccc1)C(=O)N[C@H](C(=O)N[C@@H](CC(=O)O)C(=O)N[C@@H](CCCCN)C(=O)N[C@@H](CC(=O)O)C(=O)N[C@@H](CCCCN)C(=O)N[C@@H](CC(=O)O)C(=O)N[C@@H](CC(N)=O)C(=O)N[C@H](C(=O)N[C@@H](C)C(=O)N1CCC[C@H]1C(=O)N[C@@H](CCCNC(=N)N)C(=O)N[C@H](C(=O)N[C@@H](CC(N)=O)C(=O)N[C@H](C(=O)NCC(=O)N1CCC[C@H]1C(=O)N[C@@H](CCC(N)=O)C(=O)NCC(=O)N[C@@H](Cc1ccc(O)cc1)C(N)=O)C(C)C)[C@@H](C)O)C(C)C)[C@@H](C)O [compound 386] ({C20 diacid-γGlu}-GCRFGTCTVQRLANFLYQFTDKDKDNVAPRTNVGPQGY-NH2; disulfide 2-7) |
| 0.126 | CC(C)C[C@H](NC(=O)[C@H](CCCNC(=N)N)NC(=O)[C@H](CCC(N)=O)NC(=O)[C@@H](NC(=O)[C@@H](NC(=O)[C@@H]1CSSC[C@H](NC(=O)CNC(=O)CC[C@H](NC(=O)CCCCCCCCCCCCCCCCCCC(=O)O)C(=O)O)C(=O)N[C@@H](CCCNC(=N)N)C(=O)N[C@@H](Cc2ccccc2)C(=O)NCC(=O)N[C@@H]([C@@H](C)O)C(=O)N1)[C@@H](C)O)C(C)C)C(=O)N[C@@H](C)C(=O)N[C@@H](Cc1c[nH]cn1)C(=O)N[C@@H](Cc1ccccc1)C(=O)N[C@@H](CC(C)C)C(=O)N[C@@H](Cc1ccc(O)cc1)C(=O)N[C@@H](CCC(N)=O)C(=O)N[C@@H](Cc1ccccc1)C(=O)N[C@H](C(=O)N[C@@H](CC(=O)O)C(=O)N[C@@H](CCCCN)C(=O)N[C@@H](CC(=O)O)C(=O)N[C@@H](CCCCN)C(=O)N[C@@H](CC(=O)O)C(=O)N[C@@H](CC(N)=O)C(=O)N[C@H](C(=O)N[C@@H](C)C(=O)N1CCC[C@H]1C(=O)N[C@@H](CCCNC(=N)N)C(=O)N[C@H](C(=O)N[C@@H](CC(N)=O)C(=O)N[C@H](C(=O)NCC(=O)N1CCC[C@H]1C(=O)N[C@@H](CCC(N)=O)C(=O)NCC(=O)N[C@@H](Cc1ccc(O)cc1)C(N)=O)C(C)C)[C@@H](C)O)C(C)C)[C@@H](C)O [compound 200] ({C20 diacid-γGlu}-GCRFGTCTVQRLAHFLYQFTDKDKDNVAPRTNVGPQGY-NH2; disulfide 2-7) |
| 0.036 | CC[C@H](C)[C@H](NC(=O)[C@H](CC(N)=O)NC(=O)[C@@H](NC(=O)[C@H](CCCNC(=N)N)NC(=O)[C@@H]1CCCN1C(=O)[C@H](C)NC(=O)[C@@H](NC(=O)[C@H](CC(N)=O)NC(=O)[C@H](CC(=O)O)NC(=O)[C@H](CCCCN)NC(=O)[C@H](CC(=O)O)NC(=O)[C@H](CCCCN)NC(=O)[C@H](CC(=O)O)NC(=O)[C@@H](NC(=O)[C@H](Cc1ccccc1)NC(=O)[C@H](CCC(N)=O)NC(=O)[C@H](Cc1ccc(O)cc1)NC(=O)[C@@H](NC(=O)[C@H](CCC(N)=O)NC(=O)[C@H](Cc1c[nH]cn1)NC(=O)[C@H](C)NC(=O)[C@H](CC(C)C)NC(=O)[C@H](CCCNC(=N)N)NC(=O)[C@H](CCC(N)=O)NC(=O)[C@@H](NC(=O)[C@@H](NC(=O)[C@@H]1CSSC[C@H](NC(=O)CN)C(=O)N[C@@H](CCCNC(=N)N)C(=O)N[C@@H]([C@@H](C)O)C(=O)NCC(=O)N[C@@H]([C@@H](C)O)C(=O)N1)[C@@H](C)O)C(C)C)[C@@H](C)CC)[C@@H](C)O)C(C)C)[C@@H](C)O)C(=O)NCC(=O)N1CCC[C@H]1C(=O)N[C@@H](CC(N)=O)C(=O)NCC(=O)N[C@@H](Cc1ccc(O)cc1)C(N)=O [compound 142] (H-GCRTGTCTVQRLAHQIYQFTDKDKDNVAPRTNIGPNGY-NH2; disulfide 2-7; N-terminus assumed) |
| 0.012 | CC[C@H](C)[C@H](NC(=O)[C@H](CCC(N)=O)NC(=O)[C@H](Cc1c[nH]cn1)NC(=O)[C@H](C)NC(=O)[C@H](CC(C)C)NC(=O)[C@H](CCCNC(=N)N)NC(=O)[C@H](CCC(N)=O)NC(=O)[C@@H](NC(=O)[C@@H](NC(=O)[C@@H]1CSSC[C@H](NC(=O)[C@H](CCCCN)NC(=O)CC[C@H](NC(=O)CCCCCCCCCCCCCCCCCCC(=O)O)C(=O)O)C(=O)N[C@@H](CC(N)=O)C(=O)N[C@@H]([C@@H](C)O)C(=O)N[C@@H](C)C(=O)N[C@@H]([C@@H](C)O)C(=O)N1)[C@@H](C)O)C(C)C)C(=O)N[C@@H](Cc1ccc(O)cc1)C(=O)N[C@@H](CCC(N)=O)C(=O)N[C@@H](Cc1ccccc1)C(=O)N[C@@H](CO)C(=O)N[C@@H](CC(=O)O)C(=O)N[C@@H](CCCCN)C(=O)N[C@@H](CC(=O)O)C(=O)N[C@@H](CCCCN)C(=O)N[C@@H](CC(=O)O)C(=O)N[C@@H](CC(N)=O)C(=O)N[C@H](C(=O)N[C@@H](C)C(=O)N1CCC[C@H]1C(=O)N1CCC[C@H]1C(=O)N[C@H](C(=O)N[C@@H](CC(N)=O)C(=O)N[C@H](C(=O)NCC(=O)N[C@@H](CO)C(=O)N[C@@H](CC(N)=O)C(=O)NCC(=O)N1C[C@H](O)C[C@H]1C(N)=O)C(C)C)[C@@H](C)O)C(C)C [compound 57] ({C20 diacid-γGlu}-KCNTATCTVQRLAHQIYQFSDKDKDNVAPPTNVGSNG[Hyp]-NH2; disulfide 2-7) |
| 0.071 | CC[C@H](C)[C@H](NC(=O)[C@H](CCC(N)=O)NC(=O)[C@H](Cc1c[nH]cn1)NC(=O)[C@H](C)NC(=O)[C@H](CC(C)C)NC(=O)[C@H](CCCNC(=N)N)NC(=O)[C@H](CCC(N)=O)NC(=O)[C@@H](NC(=O)[C@@H](NC(=O)[C@@H]1CSSC[C@H](NC(=O)CN)C(=O)N[C@@H](CCCNC(=N)N)C(=O)N[C@@H](Cc2ccccc2)C(=O)NCC(=O)N[C@@H]([C@@H](C)O)C(=O)N1)[C@@H](C)O)C(C)C)C(=O)N[C@@H](Cc1ccc(O)cc1)C(=O)N[C@@H](CCC(N)=O)C(=O)N[C@@H](Cc1ccccc1)C(=O)N[C@H](C(=O)N[C@@H](CC(=O)O)C(=O)N[C@@H](CCCCN)C(=O)N[C@@H](CC(=O)O)C(=O)N[C@@H](CCCCN)C(=O)N[C@@H](CC(=O)O)C(=O)N[C@@H](CC(N)=O)C(=O)N[C@H](C(=O)N[C@@H](C)C(=O)N1CCC[C@H]1C(=O)N[C@@H](CCCNC(=N)N)C(=O)N[C@@H](CO)C(=O)N[C@@H](CCCCN)C(=O)N[C@H](C(=O)N[C@@H](CO)C(=O)N1CCC[C@H]1C(=O)N[C@@H](CCC(N)=O)C(=O)NCC(=O)N[C@@H](Cc1ccc(O)cc1)C(N)=O)C(C)C)C(C)C)[C@@H](C)O [compound 174] (H-GCRFGTCTVQRLAHQIYQFTDKDKDNVAPRSKVSPQGY-NH2; disulfide 2-7; N-terminus assumed) |
| 0.01 | CC[C@H](C)[C@H](NC(=O)[C@H](CC(N)=O)NC(=O)[C@@H](NC(=O)[C@H](CCCNC(=N)N)NC(=O)[C@@H]1CCCN1C(=O)[C@H](C)NC(=O)[C@@H](NC(=O)[C@H](CC(N)=O)NC(=O)[C@H](CC(=O)O)NC(=O)[C@H](CCCCN)NC(=O)[C@H](CC(=O)O)NC(=O)[C@H](CCCCN)NC(=O)[C@H](CC(=O)O)NC(=O)[C@@H](NC(=O)[C@H](Cc1ccccc1)NC(=O)[C@H](CCC(N)=O)NC(=O)[C@H](Cc1ccc(O)cc1)NC(=O)[C@H](CC(C)C)NC(=O)[C@H](Cc1ccccc1)NC(=O)[C@H](Cc1c[nH]cn1)NC(=O)[C@H](C)NC(=O)[C@H](CC(C)C)NC(=O)[C@H](CCCNC(=N)N)NC(=O)[C@H](CCC(N)=O)NC(=O)[C@@H](NC(=O)[C@@H](NC(=O)[C@@H]1CSSC[C@H](NC(=O)CN)C(=O)N[C@@H](CCCNC(=N)N)C(=O)N[C@@H](Cc2ccccc2)C(=O)NCC(=O)N[C@@H]([C@@H](C)O)C(=O)N1)[C@@H](C)O)C(C)C)[C@@H](C)O)C(C)C)[C@@H](C)O)C(=O)NCC(=O)N1CCC[C@H]1C(=O)N[C@@H](CCC(N)=O)C(=O)NCC(=O)N[C@@H](Cc1ccc(O)cc1)C(N)=O [compound 364] (H-GCRFGTCTVQRLAHFLYQFTDKDKDNVAPRTNIGPQGY-NH2; disulfide 2-7) |
| 0.015 | CC[C@H](C)[C@@H](C(=O)N[C@@H](CC(C)C)C(=O)N[C@@H](CO)C(=O)N[C@@H](CO)C(=O)N[C@H](C(=O)N[C@@H](CCC(=O)O)C(=O)N[C@H](C(=O)NCC(=O)N[C@@H](CO)C(=O)N[C@@H](CC(N)=O)C(=O)N[C@H](C(=O)N1C[C@H](O)C[C@H]1C(N)=O)[C@@H](C)O)C(C)C)[C@@H](C)O)N(C)C(=O)[C@H](C)NC(=O)CN(C)C(=O)[C@H](Cc1ccccc1)NC(=O)[C@H](CO)NC(=O)[C@H](CO)NC(=O)[C@H](CCCNC(=N)N)NC(=O)[C@H](CCC(N)=O)NC(=O)[C@H](CC(C)C)NC(=O)[C@H](Cc1ccccc1)NC(=O)[C@H](Cc1c[nH]cn1)NC(=O)[C@H](C)NC(=O)[C@H](CC(C)C)NC(=O)[C@H](CCCNC(=N)N)NC(=O)[C@H](CCC(=O)O)NC(=O)[C@@H](NC(=O)[C@H](C)NC(=O)[C@@H]1CSSC[C@H](NC(=O)[C@H](CCCNC(=N)N)NC(=O)CC[C@H](NC(=O)CCCCCCCCCCCCCCCCCCC(=O)O)C(=O)O)C(=O)N[C@@H](CCC(N)=O)C(=O)N[C@@H]([C@@H](C)O)C(=O)N[C@@H](C)C(=O)N[C@@H]([C@@H](C)O)C(=O)N1)[C@@H](C)O [compound 80] ({C20 diacid-γGlu}-RCQTATCATERLAHFLQRSSF[Sar]A[NMeI]LSSTEVGSNT[Hyp]-NH2; disulfide 2-7) |
